How the values were obtained:
Experiment in all cases: relative viability vs DMSO control (72 h) (fraction); higher = more viable cells
A204 = test system: A204
How it was run: (§1)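 A 5 µM positive control and 0.1% DMSO vehicle ran alongside sarcoma cell lines seeded in 384-well plates to reach 80–90% confluence. Serially diluted compound, 2.5 µl from source plates of 10 mM to 0.0002 mM, was added after 24 h, and the plates were held 72 h at 37 °C, 5% CO2. Relative viability was worked out from ATPLite readings as percent growth averaged over up to triplicate wells. The values were rescaled so that 1 is full and 0 is none.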

G401 = test system: G401
How it was run: as §1

HS729 = test system: HS729
How it was run: as §1

HT1080 = test system: HT1080
How it was run: as §1

KHOS-NP = test system: KHOS-NP
How it was run: as §1

RD-ES = test system: RD-ES
How it was run: as §1

SK-ES-1 = test system: SK-ES-1
How it was run: as §1

SK-LMS-1 = test system: SK-LMS-1
How it was run: as §1

SW684 = test system: SW684
How it was run: as §1

SW872 = test system: SW872
How it was run: as §1

SW982 = test system: SW982
How it was run: as §1

VA-ES-BJ = test system: VA-ES-BJ
How it was run: as §1

CC(C)(C)c1nc(-c2cccc(NS(=O)(=O)c3c(F)cccc3F)c2F)c(-c2ccnc(N)n2)s1 [Dabrafenib]
Conditions	relative viability
A204, 0.00017 µM	1
A204, 0.00051 µM	1.04
A204, 0.00152 µM	1.04
A204, 0.00457 µM	1.04
A204, 0.01372 µM	1.05
A204, 0.04115 µM	0.978
A204, 0.1235 µM	0.938
A204, 0.3704 µM	0.843
A204, 1.111 µM	0.76
A204, 3.333 µM	0.69
A204, 10 µM	0.614
G401, 0.00017 µM	0.982
G401, 0.00051 µM	0.994
G401, 0.00152 µM	0.916
G401, 0.00457 µM	0.937
G401, 0.01372 µM	0.949
G401, 0.04115 µM	0.955
G401, 0.1235 µM	0.929
G401, 0.3704 µM	0.857
G401, 1.111 µM	0.768
G401, 3.333 µM	0.781
G401, 10 µM	0.814
HS729, 0.00017 µM	0.958
HS729, 0.00051 µM	0.949
HS729, 0.00152 µM	0.867
HS729, 0.00457 µM	0.85
HS729, 0.01372 µM	0.84
HS729, 0.04115 µM	0.844
HS729, 0.1235 µM	0.774
HS729, 0.3704 µM	0.659
HS729, 1.111 µM	0.63
HS729, 3.333 µM	0.683
HS729, 10 µM	0.811
HT1080, 0.00017 µM	1.05
HT1080, 0.00051 µM	1.09
HT1080, 0.00152 µM	1.01
HT1080, 0.00457 µM	1.07
HT1080, 0.01372 µM	1.05
HT1080, 0.04115 µM	1.11
HT1080, 0.1235 µM	1.13
HT1080, 0.3704 µM	0.944
HT1080, 1.111 µM	0.837
HT1080, 3.333 µM	0.886
HT1080, 10 µM	0.6761
KHOS-NP, 0.00017 µM	1.09
KHOS-NP, 0.00051 µM	1.07
KHOS-NP, 0.00152 µM	1.05
KHOS-NP, 0.00457 µM	0.995
KHOS-NP, 0.01372 µM	1.01
KHOS-NP, 0.04115 µM	1.03
KHOS-NP, 0.1235 µM	1.01
KHOS-NP, 0.3704 µM	0.901
KHOS-NP, 1.111 µM	0.743
KHOS-NP, 3.333 µM	0.522
KHOS-NP, 10 µM	0.303
RD-ES, 0.00017 µM	0.94
RD-ES, 0.00051 µM	0.924
RD-ES, 0.00152 µM	0.948
RD-ES, 0.00457 µM	0.94
RD-ES, 0.01372 µM	0.911
RD-ES, 0.04115 µM	0.872
RD-ES, 0.1235 µM	0.838
RD-ES, 0.3704 µM	0.706
RD-ES, 1.111 µM	0.531
RD-ES, 3.333 µM	0.508
RD-ES, 10 µM	0.557
SK-ES-1, 0.00017 µM	1.01
SK-ES-1, 0.00051 µM	1.04
SK-ES-1, 0.00152 µM	1
SK-ES-1, 0.00457 µM	1.02
SK-ES-1, 0.01372 µM	0.987
SK-ES-1, 0.04115 µM	0.927
SK-ES-1, 0.1235 µM	0.794
SK-ES-1, 0.3704 µM	0.524
SK-ES-1, 1.111 µM	0.368
SK-ES-1, 3.333 µM	0.41
SK-LMS-1, 0.00017 µM	1.07
SK-LMS-1, 0.00051 µM	1.06
SK-LMS-1, 0.00152 µM	1.05
SK-LMS-1, 0.00457 µM	1.02
SK-LMS-1, 0.01372 µM	0.964
SK-LMS-1, 0.04115 µM	0.84
SK-LMS-1, 0.1235 µM	0.7165
SK-LMS-1, 0.3704 µM	0.586
SK-LMS-1, 1.111 µM	0.607
SK-LMS-1, 3.333 µM	0.691
SK-LMS-1, 10 µM	0.557
SW684, 0.00017 µM	1.13
SW684, 0.00051 µM	1.09
SW684, 0.00152 µM	1.129
SW684, 0.00457 µM	1.18
SW684, 0.01372 µM	1.13
SW684, 0.04115 µM	1.12
SW684, 0.1235 µM	1.13
SW684, 0.3704 µM	1.025
SW684, 1.111 µM	0.953
SW684, 3.333 µM	1.09
SW684, 10 µM	1.16
SW872, 0.00017 µM	1.08
SW872, 0.00051 µM	1.01
SW872, 0.00152 µM	0.907
SW872, 0.00457 µM	0.821
SW872, 0.01372 µM	0.614
SW872, 0.04115 µM	0.558
SW872, 0.1235 µM	0.525
SW872, 0.3704 µM	0.463
SW872, 1.111 µM	0.412
SW872, 3.333 µM	0.398
SW872, 10 µM	0.334
SW982, 0.00017 µM	1
SW982, 0.00051 µM	0.988
SW982, 0.00152 µM	0.974
SW982, 0.00457 µM	0.886
SW982, 0.01372 µM	0.85
SW982, 0.04115 µM	0.779
SW982, 0.1235 µM	0.701
SW982, 0.3704 µM	0.469
SW982, 1.111 µM	0.384
SW982, 3.333 µM	0.369
SW982, 10 µM	0.356
VA-ES-BJ, 0.00017 µM	1.02
VA-ES-BJ, 0.00051 µM	1.02
VA-ES-BJ, 0.00152 µM	1.06
VA-ES-BJ, 0.00457 µM	1.05
VA-ES-BJ, 0.01372 µM	1.07
VA-ES-BJ, 0.04115 µM	1.02
VA-ES-BJ, 0.1235 µM	1.01
VA-ES-BJ, 0.3704 µM	0.82
VA-ES-BJ, 1.111 µM	0.646
VA-ES-BJ, 3.333 µM	0.654
VA-ES-BJ, 10 µM	0.5821

N#CCNC(=O)c1ccc(-c2ccnc(Nc3ccc(N4CCOCC4)cc3)n2)cc1 [Momelotinib]
Conditions	relative viability
A204, 0.00017 µM	1.03
A204, 0.00051 µM	1.07
A204, 0.00152 µM	1.05
A204, 0.00457 µM	1.05
A204, 0.01372 µM	1.04
A204, 0.04115 µM	1.06
A204, 0.1235 µM	0.993
A204, 0.3704 µM	0.774
A204, 1.111 µM	0.646
A204, 3.333 µM	0.498
A204, 10 µM	0.284
G401, 0.00017 µM	1.01
G401, 0.00051 µM	1.011
G401, 0.00152 µM	1.05
G401, 0.00457 µM	1.06
G401, 0.01372 µM	1.01
G401, 0.04115 µM	0.964
G401, 0.1235 µM	0.975
G401, 0.3704 µM	0.898
G401, 1.111 µM	0.779
G401, 3.333 µM	0.683
G401, 10 µM	0.54
HS729, 0.00017 µM	1.07
HS729, 0.00051 µM	1.04
HS729, 0.00152 µM	1.05
HS729, 0.00457 µM	1.06
HS729, 0.01372 µM	1.01
HS729, 0.04115 µM	1.01
HS729, 0.1235 µM	0.995
HS729, 0.3704 µM	0.939
HS729, 1.111 µM	0.859
HS729, 3.333 µM	0.777
HS729, 10 µM	0.741
HT1080, 0.00017 µM	1.03
HT1080, 0.00051 µM	1.1
HT1080, 0.00152 µM	1.069
HT1080, 0.00457 µM	1.06
HT1080, 0.01372 µM	1.08
HT1080, 0.04115 µM	1.09
HT1080, 0.1235 µM	1.12
HT1080, 0.3704 µM	1.17
HT1080, 1.111 µM	1.18
HT1080, 3.333 µM	1.25
HT1080, 10 µM	1.21
KHOS-NP, 0.00017 µM	1.09
KHOS-NP, 0.00051 µM	1.099
KHOS-NP, 0.00152 µM	1.101
KHOS-NP, 0.00457 µM	1.09
KHOS-NP, 0.01372 µM	1.115
KHOS-NP, 0.04115 µM	1.11
KHOS-NP, 0.1235 µM	1.101
KHOS-NP, 0.3704 µM	1.08
KHOS-NP, 1.111 µM	1.01
KHOS-NP, 3.333 µM	1.05
KHOS-NP, 10 µM	0.983
RD-ES, 0.00017 µM	0.9849
RD-ES, 0.00051 µM	0.981
RD-ES, 0.00152 µM	0.9765
RD-ES, 0.00457 µM	0.965
RD-ES, 0.01372 µM	0.976
RD-ES, 0.04115 µM	0.954
RD-ES, 0.1235 µM	0.955
RD-ES, 0.3704 µM	0.896
RD-ES, 1.111 µM	0.818
RD-ES, 3.333 µM	0.84
RD-ES, 10 µM	0.797
SK-ES-1, 0.00017 µM	1.06
SK-ES-1, 0.00051 µM	1.05
SK-ES-1, 0.00152 µM	1.01
SK-ES-1, 0.00457 µM	1.01
SK-ES-1, 0.01372 µM	0.978
SK-ES-1, 0.04115 µM	0.953
SK-ES-1, 0.1235 µM	0.914
SK-ES-1, 0.3704 µM	0.781
SK-ES-1, 1.111 µM	0.575
SK-ES-1, 3.333 µM	0.516
SK-ES-1, 10 µM	0.332
SK-LMS-1, 0.00017 µM	1.13
SK-LMS-1, 0.00051 µM	1.13
SK-LMS-1, 0.00152 µM	1.11
SK-LMS-1, 0.00457 µM	1.1
SK-LMS-1, 0.01372 µM	1.13
SK-LMS-1, 0.04115 µM	1.06
SK-LMS-1, 0.1235 µM	1.08
SK-LMS-1, 0.3704 µM	1.05
SK-LMS-1, 1.111 µM	0.946
SK-LMS-1, 3.333 µM	0.924
SK-LMS-1, 10 µM	0.886
SW684, 0.00017 µM	1.12
SW684, 0.00051 µM	1.15
SW684, 0.00152 µM	1.09
SW684, 0.00457 µM	1.13
SW684, 0.01372 µM	1.12
SW684, 0.04115 µM	1.13
SW684, 0.1235 µM	1.1
SW684, 0.3704 µM	1.02
SW684, 1.111 µM	0.795
SW684, 3.333 µM	0.82
SW684, 10 µM	0.646
SW872, 0.00017 µM	1.07
SW872, 0.00051 µM	1.06
SW872, 0.00152 µM	1.07
SW872, 0.00457 µM	1.025
SW872, 0.01372 µM	1.03
SW872, 0.04115 µM	1.06
SW872, 0.1235 µM	0.973
SW872, 0.3704 µM	0.972
SW872, 1.111 µM	0.765
SW872, 3.333 µM	0.733
SW872, 10 µM	0.654
SW982, 0.00017 µM	0.986
SW982, 0.00051 µM	1.02
SW982, 0.00152 µM	1.025
SW982, 0.00457 µM	1.02
SW982, 0.01372 µM	0.983
SW982, 0.04115 µM	1
SW982, 0.1235 µM	0.987
SW982, 0.3704 µM	0.841
SW982, 1.111 µM	0.604
SW982, 3.333 µM	0.548
SW982, 10 µM	0.436
VA-ES-BJ, 0.00017 µM	1.07
VA-ES-BJ, 0.00051 µM	1.07
VA-ES-BJ, 0.00152 µM	1.08
VA-ES-BJ, 0.00457 µM	1.066
VA-ES-BJ, 0.01372 µM	1.09
VA-ES-BJ, 0.04115 µM	1.07
VA-ES-BJ, 0.1235 µM	1.04
VA-ES-BJ, 0.3704 µM	1.03
VA-ES-BJ, 1.111 µM	0.97
VA-ES-BJ, 3.333 µM	0.987
VA-ES-BJ, 10 µM	0.891
